Data set [1] addresses T1, HSA (Homo sapiens, UniProt P02768).
T1 construct: purchased H13H-2433
Briefly: HSA binding on Chiralpak HSA column. Type of data set: in vitro ADME. Conditions: for Log K HSA: logarithmic K of human serum albumin binding, calibration reference; for HSA Binding: Chiralpak HSA column (50 × 3 mm, 5 μm), (n = 6).
Protocol: The mobile phase (A: NH4OAc, 50 mM in water, pH 7 and B: isopropanol) was freshly prepared for each experiment and only used for one day. The column was kept at room temperature and each run was stopped after detection of the signal to reduce the acquisition time. All substances were dissolved in a 0.5 mg/ml concentration in 50% 2-propanol and 50% 50 mM pH 6.9 ammonium acetate buffer. […] All nine reference substances were injected consecutively to establish a non-linear regression with Origin Pro 2016G.

Data set [2] addresses T1, HSA. Conditions: literature value of human serum albumin binding (Yamazaki 2004); calibration reference; cited from earlier work.
For a further data set, the target named is T2, PSMA (Homo sapiens, UniProt Q04609).
T2 construct: endogenous in cells; host or cells: LNCaP cells
T2 sequence (Q04609 whole entry): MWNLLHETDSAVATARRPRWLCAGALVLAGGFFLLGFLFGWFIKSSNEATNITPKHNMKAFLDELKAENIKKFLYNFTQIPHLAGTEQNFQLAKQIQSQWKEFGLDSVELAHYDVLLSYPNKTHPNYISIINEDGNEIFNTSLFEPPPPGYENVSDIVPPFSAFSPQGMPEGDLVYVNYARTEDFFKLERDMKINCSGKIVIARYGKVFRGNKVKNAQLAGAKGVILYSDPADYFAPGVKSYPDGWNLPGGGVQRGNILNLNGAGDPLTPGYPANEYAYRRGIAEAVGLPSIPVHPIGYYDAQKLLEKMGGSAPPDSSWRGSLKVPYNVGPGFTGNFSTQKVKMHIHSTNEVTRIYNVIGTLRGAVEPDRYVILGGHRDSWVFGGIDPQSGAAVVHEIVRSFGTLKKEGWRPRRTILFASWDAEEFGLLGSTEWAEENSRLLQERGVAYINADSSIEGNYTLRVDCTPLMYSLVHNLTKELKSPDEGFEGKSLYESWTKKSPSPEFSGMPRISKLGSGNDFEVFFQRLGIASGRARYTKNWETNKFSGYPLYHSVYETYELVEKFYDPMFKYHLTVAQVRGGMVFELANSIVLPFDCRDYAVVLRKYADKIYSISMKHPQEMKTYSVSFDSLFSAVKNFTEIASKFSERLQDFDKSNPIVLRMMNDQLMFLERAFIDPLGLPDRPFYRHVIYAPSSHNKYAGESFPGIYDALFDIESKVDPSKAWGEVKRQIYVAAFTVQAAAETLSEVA
Nature of the data set: Determination of IC50: PSMA affinity, competition with ([125I]I-BA)KuE on LNCaP cells. Format: binding. As for the experimental part: After removal of the culture medium, the cells were treated once with 500 μL of HBSS (Hank's balanced salt solution, Biochrom, Berlin, Germany, with addition of 1% bovine serum albumin (BSA)) and left 15 min on ice for equilibration in 200 μL HBSS (1% BSA). […] Quantification of bound and free radioligand was accomplished in a γ-counter.

In the next data set the test system is LNCaP cells. Nature of the data set: Internalization into LNCaP cells, relative to ([125I]I-BA)KuE. Format: cell-based. To be noted: for internalization rate Mean / individual internalization rates: LNCaP cells, 1 h, 37 °C, c=0.5 nM; for individual internalization rates: single measurements. The procedure:
Data is corrected for non-specific binding ([…]) and expressed as mean±SD (n=3).
Subsequent to the removal of the culture medium, the cells were washed once with 500 μL DMEM-F12 (5% BSA) and left to equilibrate for at least 15 min at 37° C. in 200 μL DMEM-F12 (5% BSA). Each well was treated with either 25 μL of either DMEM-F12 (5% BSA) or a 100 μM PMPA solution for blockade. Next, 25 μL of the ^68Ga/^18F-labeled PSMA inhibitor (5.0 nM) was added and the cells incubated at 37° C. for 60 min. The experiment was terminated by placing the 24-well plate on ice for 3 min and consecutive removal of the medium. Each well was rinsed with 250 μL HBSS and the fractions from these first two steps combined, representing the amount of free radioligand. Removal of surface bound activity was accomplished by incubation of the cells with 250 μL of ice-cold PMPA (10 μM in PBS) solution for 5 min and rinsed again with another 250 μL of ice-cold PBS. The internalized activity was determined by incubation of the cells in 250 μL 1 M NaOH and the combination with the fraction of a subsequent wash step with 250 μL 1.0 M NaOH. Each experiment (control and bloackde) was performed in triplicate. Free, surface bound and internalized activity was quantified in a γ-counter. […] Data were corrected for non-specific internalization and normalized to the specific-internalization observed for the radioiodinated reference compound.

Data set [3] relates to LNCaP tumor-bearing CB-17 SCID mice. To be noted: male, mouse, in vivo, 1 h.
Protocol: To establish tumor xenografts, LNCaP cells (10^7 cells/200 μL) were suspended in a 1:1 mixture (v/v) of Dulbecco modified Eagle medium/Nutrition Mixture F-12 with Glutamax-I (1:1) and Matrigel (BD Biosciences, Germany), and inoculated subcutaneously onto the right shoulder of 6-8 weeks old CB17-SCID mice (Charles River, Sulzfeld, Germany). Mice were used for when tumors had grown to a diameter of 5-8 mm (3-4 weeks after inoculation).
Approximately 1-2 MBq (<0.2 nmol) of the ^18F-labeled PSMA inhibitor was injected into the tail vein of LNCaP tumor-bearing male CB-17 SCID mice and sacrificed after 1 h post injection (n=4-5). Selected organs were removed, weighted and measured in a γ-counter
The conditions of data set [4]: Wängler et al., Bioconjug Chem. 2010; cited from earlier work.
Data set [5] can be described thus: Octanol-water partition coefficient (n-octanol/PBS pH 7.4). Type of data set: physicochemical. The procedure:
Approximately 1 MBq of the labeled tracer was dissolved in 1 mL of a 1:1 mixture (by volumes) of phosphate buffered saline (PBS, pH 7.4) and n-octanol in an Eppendorf tube. After vigorous mixing of the suspension for 3 minutes at room temperature, the vial was centrifuged at 15000 g for 3 minutes (Biofuge 15, Heraus Sepatech, Osterode, Germany) and 100 μL aliquots of both layers were measured in a gamma counter. The experiment was repeated at least six times.
Determianation of the logP values was carried out in phosphate buffered saline (PBS, pH 7.4) and n-octanol (=logPoct/PBS).

Where [6] appears, read: LNCaP cells, [125I]IB-KuE 0.2 nM, 1 h, 4 °C, HBSS+1% BSA, single measurements, read-out: individual IC50 measurements.
Where [7] appears, read: LNCaP cells, [125I]IB-KuE 0.2 nM, 1 h, 4 °C, mean of the individual measurements, read-out: IC50 Mean.
The mark [8] stands for this setting: mean ± SD as quoted in the discussion.

Where “and” joins values, the source holds several entries; their conditions need not be identical. Equal entries are not always repeated. Where two headings read alike, the source gives them in different places.

T1 sequence (P02768 25-609): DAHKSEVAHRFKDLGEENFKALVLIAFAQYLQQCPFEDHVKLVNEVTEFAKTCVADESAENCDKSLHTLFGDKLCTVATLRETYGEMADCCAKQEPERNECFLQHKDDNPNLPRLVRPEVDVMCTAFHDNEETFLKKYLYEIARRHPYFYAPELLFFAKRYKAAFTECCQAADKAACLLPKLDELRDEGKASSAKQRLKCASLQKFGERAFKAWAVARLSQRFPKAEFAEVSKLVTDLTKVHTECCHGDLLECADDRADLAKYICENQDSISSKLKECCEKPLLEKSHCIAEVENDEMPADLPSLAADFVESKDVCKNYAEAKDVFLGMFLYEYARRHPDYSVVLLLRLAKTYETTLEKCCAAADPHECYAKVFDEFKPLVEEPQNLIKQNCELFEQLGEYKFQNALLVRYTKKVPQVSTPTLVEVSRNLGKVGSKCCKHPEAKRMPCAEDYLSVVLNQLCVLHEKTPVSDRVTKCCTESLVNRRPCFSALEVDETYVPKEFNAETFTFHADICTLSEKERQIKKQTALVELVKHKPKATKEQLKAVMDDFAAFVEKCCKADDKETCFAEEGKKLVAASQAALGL

In the case of `COc1ccc(Cl)cc1C(=O)NCCc1ccc(S(=O)(=O)NC(=O)NC2CCCCC2)cc1` [Glibenclamide], at HSA [1], the “Log K HSA” value is recorded as 1.69. In addition, on HSA [2], the “Lit. HSA %” value was 99.00%.

Turning to `O=[N+]([O-])c1ccc(O)cc1` [p-nitrophenol], at HSA [2], the “Lit. HSA %” value was 77.65%.

As to `Nc1ccccc1` [Aniline], the “Log K HSA” value at HSA [1] was −0.79. Further, the “Lit. HSA %” value at HSA [2] was 14.06%.

For the molecule `O=C(O)c1ccccc1` [Benzoic Acid], the “Lit. HSA %” value at HSA [2] is listed as 34.27%.

Turning to `Oc1ccccc1` [Phenol], the “Log K HSA” value at HSA [1] was −0.59. Moreover, the “Lit. HSA %” value at HSA [2] is listed as 20.69%.

Turning to `O=C(O)CC[C@H](NC(=O)N[C@@H](CCCCNC(=O)c1ccc(F)nc1)C(=O)O)C(=O)O` [DCFPyL], the “HSA Binding” value on HSA [1] was determined as 14.3%.

As for `CC(C)(C)[Si](F)(c1ccc(C(=O)NC[C@H](NC(=O)CC[C@@H](C(=O)O)N2CCN(CC(=O)O)CCN(CC(=O)O)CCN(CC(=O)O)CC2)C(=O)N[C@H](CCCCNC(=O)CCC(=O)NCCC[C@@H](NC(=O)CC[C@H](NC(=O)N[C@@H](CCC(=O)O)C(=O)O)C(=O)O)C(=O)O)C(=O)O)cc1)C(C)(C)C` [rhPSMA7.4, [^19F][^natGa]L-Dap-S-DOTAGA-rhPSMA7, metal not drawn], the IC50 at PSMA (setting [6]) is 3.4 nM and 3.56 nM and 2.79 nM and 4.57 nM and 3.78 nM. The half-maximal inhibitory concentration (IC50) on PSMA (setting [7]) turned out to be 3.62 nM. Moreover, in the data set on LNCaP cells, the “internalization rate Mean” value was 207.33 % of [^125I]IB-KuE; the individual internalization rates is 209.6 % of [^125I]IB-KuE and 202.6 % of [^125I]IB-KuE and 209.8 % of [^125I]IB-KuE. The internalization in the data set on LNCaP cells (setting [8]) amounted to 207.33±4.06%. Also, at HSA [1], the “HSA Binding” value was 96.6%. Also, in data set [3], the Biodistribution adrenals was 3.57 ± 2.38 % ID/g, the Biodistribution blood worked out at 1.15 ± 0.30 % ID/g, the Biodistribution bone is recorded as 0.62 ± 0.30 % ID/g and the Biodistribution heart is given as 0.71 ± 0.26 % ID/g. Moreover, in data set [3], the Biodistribution intestine amounted to 0.37 ± 0.09 % ID/g, the Biodistribution kidneys was 153 ± 80.3 % ID/g, the Biodistribution liver was 0.69 ± 0.20 % ID/g and the Biodistribution lung is reported as 1.59 ± 0.61 % ID/g. In data set [3], this molecule returned a Biodistribution muscle of 0.31 ± 0.08 % ID/g, a Biodistribution pancreas of 0.50 ± 0.30 % ID/g, a Biodistribution spleen of 18.4 ± 9.77 % ID/g and a Biodistribution stomach of 0.25 ± 0.06 % ID/g. Besides, the Biodistribution tumor in data set [3] was 18.9 ± 3.27 % ID/g.

Regarding `CC(C)(C)[Si](F)(c1ccc(C(=O)NC[C@@H](NC(=O)CC[C@H](C(=O)O)N2CCN(CC(=O)O)CCN(CC(=O)O)CCN(CC(=O)O)CC2)C(=O)N[C@H](CCCCNC(=O)CCC(=O)NCCC[C@@H](NC(=O)CC[C@H](NC(=O)N[C@@H](CCC(=O)O)C(=O)O)C(=O)O)C(=O)O)C(=O)O)cc1)C(C)(C)C` [rhPSMA7.1, [^19F][^natGa]D-Dap-R-DOTAGA-rhPSMA7, metal not drawn], the IC50 at PSMA (setting [6]) was 5.04 nM and 7.11 nM and 8.31 nM and 4.97 nM and 6.44 nM and 8.74 nM and 6.91 nM and 7.27 nM. On PSMA (setting [7]), the half-maximal inhibitory concentration (IC50) amounted to 6.85 nM. In the data set with LNCaP cells, the “internalization rate Mean” value was 69.55 % of [^125I]IB-KuE; the individual internalization rates is 77.5 % of [^125I]IB-KuE and 61.8 % of [^125I]IB-KuE and 70.6 % of [^125I]IB-KuE and 68.0 % of [^125I]IB-KuE and 67.9 % of [^125I]IB-KuE and 71.5 % of [^125I]IB-KuE. Moreover, the internalization with LNCaP cells (setting [8]) is recorded as 69.55%±5.29. The “HSA Binding” value on HSA [1] came to 97.7%. In data set [3], this molecule had a Biodistribution adrenals of 2.0 ± 0.25 % ID/g, a Biodistribution blood of 0.53 ± 0.13 % ID/g, a Biodistribution bone of 0.50 ± 0.31 % ID/g and a Biodistribution heart of 0.53 ± 0.03 % ID/g. In addition, in data set [3], the Biodistribution intestine is given as 0.30 ± 0.16 % ID/g, the Biodistribution kidneys was 220 ± 24.8 % ID/g, the Biodistribution liver was found to be 0.75 ± 0.62 % ID/g and the Biodistribution lung was determined as 1.1 ± 0.21 % ID/g. In data set [3], the Biodistribution muscle is 0.32 ± 0.30 % ID/g, the Biodistribution pancreas was 0.45 ± 0.12 % ID/g, the Biodistribution spleen turned out to be 20.0 ± 4.2 % ID/g and the Biodistribution stomach amounted to 0.28 ± 0.17 % ID/g. For the same molecule, the Biodistribution tumor in data set [3] amounted to 14.1 ± 4.1 % ID/g.

For the molecule “SIFA-Asn(AcNH-β-Glc)-PEG-Tyr^3-octreotate”, the “log P(ow)” value in data set [4] is listed as 0.96.

As to PSMA-1007 [reference compound], the IC50 at PSMA (other selected PSMA inhibitors, own lab, identical binding assay (Robu et al. 2018), read-out: IC50) worked out at 4.2 ± 0.5 nM. For the same molecule, the internalization with LNCaP cells (other selected PSMA inhibitors, own lab, identical assay (Robu et al. 2018)) is 118 ± 4 % of [^125I]IB-KuE. For the same molecule, the “log P” value in data set [5] (octanol/PBS7.4, (n = 6)) is on record as −1.6. Besides, on HSA [1], the “HSA Binding” value was 97.8%.

For SIFA-Asn(AcNH-β-Glc)-Tyr^3-octreotate, the “log P(ow)” value in data set [4] is 1.23.

Regarding `CCCN(CCC)S(=O)(=O)c1ccc(C(=O)O)cc1` [Probenecid], on HSA [2], the “Lit. HSA %” value is 95.00%.

Consider `CC(C)(C)[Si](F)(c1ccc(C(=O)NC[C@H](NC(=O)CC[C@H](C(=O)O)N2CCN(CC(=O)O)CCN(CC(=O)O)CCN(CC(=O)O)CC2)C(=O)N[C@H](CCCCNC(=O)CCC(=O)NCCC[C@@H](NC(=O)CC[C@H](NC(=O)N[C@@H](CCC(=O)O)C(=O)O)C(=O)O)C(=O)O)C(=O)O)cc1)C(C)(C)C` [rhPSMA7.2, [^19F][^natGa]L-Dap-R-DOTAGA-rhPSMA7, metal not drawn], for which, on PSMA (setting [6]), the concentration for half-maximal inhibition (IC50) was 2.64 nM and 2.76 nM and 3.94 nM and 5.8 nM and 4.31 nM and 4.32 nM and 3.17 nM and 2.97 nM and 3.36 nM. Also, the IC50 on PSMA (setting [7]) was found to be 3.7 nM. Further, in the data set with LNCaP cells, the “internalization rate Mean” value is 191.83 % of [^125I]IB-KuE; the individual internalization rates is 192.3 % of [^125I]IB-KuE and 188.7 % of [^125I]IB-KuE and 182.7 % of [^125I]IB-KuE and 169.5 % of [^125I]IB-KuE and 205.3 % of [^125I]IB-KuE and 212.6 % of [^125I]IB-KuE. The internalization in the data set on LNCaP cells (setting [8]) was 191.83%±15.54. Moreover, the “individual log P measurements” value in data set [5] (octanol/PBS7.4, single measurements) was −3.00 and −3.02 and −3.06 and −3.45. The logP in data set [5] (pH 7.4, log P) is -3.13 ± 0.22. In addition, in data set [5] (pH 7.4, log P Mean), the log partition coefficient (logP) is -3.13. Besides, the “HSA Binding” value at HSA [1] amounted to 97.8%. In data set [3], this molecule yielded a Biodistribution adrenals of 1.3 ± 0.8 % ID/g, a Biodistribution blood of 0.56 ± 0.20 % ID/g, a Biodistribution bone of 0.31 ± 0.24 % ID/g and a Biodistribution heart of 0.32 ± 0.13 % ID/g. In addition, in data set [3], the Biodistribution intestine amounted to 0.18 ± 0.07 % ID/g, the Biodistribution kidneys is 87.6 ± 28.8 % ID/g, the Biodistribution liver stood at 0.35 ± 0.08 % ID/g and the Biodistribution lung is given as 0.89 ± 0.38 % ID/g. In data set [3], this molecule showed a Biodistribution muscle of 0.13 ± 0.07 % ID/g, a Biodistribution pancreas of 0.21 ± 0.08 % ID/g, a Biodistribution spleen of 10.1 ± 6.3 % ID/g and a Biodistribution stomach of 0.19 ± 0.08 % ID/g. In data set [3], this molecule displayed a Biodistribution tumor of 6.5 ± 2.3 % ID/g.

Source of the values: patent US12377176B2, “Cancer diagnostic imaging agents” (Technische Universität München, priority 2019, dated 2025).
